From patent US20050053704A1, “Acidic composition and its uses” (Mionix Corporation, priority 2003, published 2005)
Where two headings read alike, the source gives them in different places.

Tests used:
L. monocytogenes [1] = conditions: cited from earlier work
[2] = Contact of acidic solution with human skin; conditions: solution with a pH of less than 0.5
L. monocytogenes [3] = conditions: dipping in 5% acid, refrigerated storage; cited from earlier work

CC(O)C(=O)O (stereo not drawn) [lactate]
Effect on growth of L. monocytogenes (L. monocytogenes [1]; lactate (4%), sterile broth, chicken and beef (Shelef and Yang 1991)): growth suppression
Listeristatic effect, L. monocytogenes strain Scott A (L. monocytogenes [1]; lactate concentrations less than 4%, meat model system (Chen and Shelef 1992)): not listeristatic

O=S(=O)(O)O [sulfuric acid]
Irritation of a hand put into the solution [2]: an irritation would occur within a relatively short span of time

CC(O)C(=O)[O-].[Na+] (stereo not drawn) [Sodium lactate]
Effect on growth of L. monocytogenes (L. monocytogenes [1]; 3 or 4% compared to 0 or 2%, cooked beef stored at 10° C. (Miller and Acuff 1994)): effective against the growth

CC(O)C(=O)O (stereo not drawn) [lactic acid]
Effect on L. monocytogenes of dipping in acid (L. monocytogenes [3]): not only killed, but also prevented from growing during 90 days of refrigerated storage

CC(=O)O [acetic acid]
Effect on L. monocytogenes of dipping in acid (L. monocytogenes [3]): not only killed, but also prevented from growing during 90 days of refrigerated storage
